The text below walks through data of patent US5021450A (priority 1989, dated 1991).

The structures appear in SMILES notation. “Also recorded” adds a separate entry of the source. Like-named read-outs stand apart in the source and are kept apart here.

Assay [1] relates to polymodal nociceptor neurons. The following applies: for RTX-like effects: in vivo.
In assay [2] the target is protein kinase C. The class given is binding. The following applies: for Ki: read-out: KI, binding affinity to protein kinase C.
For assay [3], the system named is polymodal nociceptors. On the set-up: species or system Sprague-Dawley rats. The settings on record: rat, in vivo.
Assay [4] deals with polymodal nociceptors. Kind of assay: animal or person. The assay is classed as in vivo, Sprague-Dawley rats.
Assay [5] deals with polymodal nociceptors. The assay is classed as in vivo, Sprague-Dawley rats. The settings on record: for Neurogenic inflammation, Evan's blue: 30 min; for Evan's blue extravasation / less potent than RTX for induction of Evan's blue extravasation: rat, in vivo.
In assay [6] the target is protein kinase C. The following applies: read-out: KI, binding affinity to protein kinase C; cited from earlier work.
The test system of assay [7] is polymodal nociceptor neurons. The settings on record: in vivo; cited from earlier work.
The subject of assay [8] is polymodal nociceptors. As to the kind of experiment: animal or person. The assay is classed as in vivo, Sprague-Dawley rats. This is another data set of the same source.
A further assay has as its system mouse ear. The settings on record: in vivo; cited from earlier work.
The conditions of assay [9]: mouse, in vivo; cited from earlier work.
Assay [10] relates to polymodal nociceptors. The settings on record: rat, in vivo; cited from earlier work.
In assay [11] the test system is polymodal nociceptors. On the set-up: species or system Sprague-Dawley rats. The following applies: rat, in vivo. The source holds these as a separate data set.
For assay [12] the following is noted: rat, in vivo; cited from earlier work.
Details of assay [13]: species or system rats. The following applies: rat, in vivo.
Setting [14] is: Rattus norvegicus, sc, 6 hr, read-out: Systemic desensitization against neurogenic inflammation, inhibition.
[15] abbreviates: Rattus norvegicus, sc, 6 h, read-out: Systemic desensitization against neurogenic pain, inhibition.

Regarding `CC1=C[C@H]2[C@@]3(O)[C@H](C)C[C@]4(OC(=O)Cc5ccccc5)[C@H]([C@@H]3C=C(CO)C[C@]2(O)C1=O)C4(C)C` [dPP, 12-deoxyphorbol 13-phenylacetate], the “RTX-like effects” value in assay [1] is “inactive”. For the same compound, the Ki (as a rule, a measure of affinity in units of concentration, obtained from inhibition or displacement) on protein kinase C [2] came to 0.64 ± 0.01 nM. Further, the “RPP (Relative Pain-Producing Potency)” value in the assay on polymodal nociceptors [3] came to 1. In addition, in the assay with polymodal nociceptors [4] (setting [14]), the inhibition (in general, the percentage by which the read-out fell short of the control) at 0.3 mg/kg came out at 0%. Also, in the assay on polymodal nociceptors [5], the “Neurogenic inflammation, Evan's blue” value is given as 0 and the “Evan's blue extravasation” value is on record as “slight extravasation”.

For `C=C(C)[C@@]12O[C@@]3(c4ccccc4)O[C@@H]1[C@@H]1[C@@H]4O[C@]4(CO)[C@@H](O)[C@]4(O)C(=O)C(C)=C[C@H]4[C@@]1(O3)[C@H](C)[C@H]2OC(=O)/C=C/C=C/c1ccccc1` [Mez, Mezerein], the “RTX-like effects” value in [1] was “inactive”. In addition, the Ki at protein kinase C [6] is 0.58 ± 0.06 nM. Also, in the assay on polymodal nociceptors [3], the “RPP (Relative Pain-Producing Potency)” value turned out to be 0.1. Moreover, in the assay on polymodal nociceptors [4] (setting [14]), the inhibition at 0.3 mg/kg came to 0%. Moreover, in the assay on polymodal nociceptors [5], the “Neurogenic inflammation, Evan's blue” value was determined as 0 and the “Evan's blue extravasation” value is given as “slight extravasation”.

Regarding `C=C(C)[C@]12C[C@@H](C)[C@@]34O[C@](Cc5ccccc5)(O[C@@H]1[C@@H]3C=C(COC(=O)Cc1ccc(O)c(OC)c1)C[C@]1(O)C(=O)C(C)=C[C@@H]41)O2` [RTX, Resiniferatoxin], the “more potent compared to capsaicin” value in [7] was 3-4 orders of magnitude. The inhibition at 0.01 mg/kg in the assay with polymodal nociceptors [8] (setting [15]) was 100%. Besides, in the assay on mouse ear, the “more potent than phorbol 12-myristate 13-acetate in mouse ear erythema assay” value is 1000 fold. Moreover, in the assay with protein kinase C [2], the “Relative Affinity” value turned out to be 11, the “reduction of protein kinase C binding affinity by the 20-homovanillate ester” value (“reduction” for short) was 11 fold and the Ki was determined as 404 ± 63 nM. In addition, in [9], the “body temperature in mice” value is recorded as “dramatic fall in body temperature”. For the same compound, the “dose giving a detectable Evan's blue extravasation response” value in the assay with polymodal nociceptors [10] is given as 3×10^-6 g/paw. In addition, in the assay with polymodal nociceptors [3], the “RPP (Relative Pain-Producing Potency)” value came to 1000, the “activity in eye-wiping assay / pain induction” value is “comparable activity” and the “delay of eye-wiping movements after instillation” value fell in the range of 5 to 10 s. The inhibition at 0.3 mg/kg in the assay on polymodal nociceptors [4] (setting [14]) came to 100%. Moreover, the “Local desensitization against neurogenic pain, inhibition” value with polymodal nociceptors [11] amounted to 43%. Besides, in assay [12], the “dose producing a substantial drop in body temperature” value is 10^-7 g/kg. In addition, the “Neurogenic inflammation, Evan's blue” value in the assay with polymodal nociceptors [5] was found to be 91.6 ± 3.6.

As to `COc1cc(CNC(=O)CCCC/C=C/C(C)C)ccc1O` [capsaicin], the “body temperature in mice” value in assay [9] is recorded as “dramatic fall in body temperature”.

For `C=C(C)[C@@]12O[C@@]3(c4ccccc4)O[C@@H]1[C@@H]1[C@@H]4O[C@]4(COC(=O)Cc4ccc(O)c(OC)c4)[C@@H](O)[C@]4(O)C(=O)C(C)=C[C@H]4[C@@]1(O3)[C@H](C)[C@H]2OC(=O)/C=C/C=C/c1ccccc1` [Mez-HV, Mezerein 20-homovanillate], in [1], the “RTX-like effects” value was “inactive”. The inhibition at 0.3 mg/kg in the assay on polymodal nociceptors [8] (setting [15]) was 0%. Moreover, in the assay on polymodal nociceptors [8] (rat, in vivo), the “desensitization to chemically-induced pain and to neurogenic inflammation” value was “No activity; also recorded: inactive”. Besides, in the assay on protein kinase C [2], the “Relative Affinity” value was determined as 690, the “reduction” value came to 690 fold and the Ki came out at 400 ± 110 nM. In the assay with polymodal nociceptors [3], the “RPP (Relative Pain-Producing Potency)” value is 0.1; the “activity in eye-wiping assay / pain induction” value is on record as “very weak pungency; also recorded: very weak activity”; the “potency in eye-wiping assay, less potent than RTX and dPP-HV” value was “approximately 4 orders of magnitude”. Also, the inhibition at 0.3 mg/kg in the assay on polymodal nociceptors [4] (setting [14]) was found to be 0%. Also, in the assay on polymodal nociceptors [5], the “Neurogenic inflammation, Evan's blue” value is listed as 0; the “Evan's blue extravasation” value was “No extravasation”; the “less potent than RTX for induction of Evan's blue extravasation” value is reported as “at least 30 fold”.

As for `C=C(C)[C@]12C[C@@H](C)[C@@]34O[C@](Cc5ccccc5)(O[C@@H]1[C@@H]3C=C(CO)C[C@]1(O)C(=O)C(C)=C[C@@H]41)O2` [ROA, Resiniferonol 9,13,14Orthophenylacetate], the “RTX-like effects” value in assay [1] was “totally inactive”. Further, the inhibition at 0.3 mg/kg with polymodal nociceptors [8] (setting [15]) stood at 0%. In the assay on mouse ear, the “potency in ear reddening assay, less than dPP” value is 25 fold and the “potency in ear reddening assay, less than mezerein” value is given as 33 fold. For the same compound, in the assay with protein kinase C [2], the “less active than dPP or mezerein in competing for phorbol ester binding sites on protein kinase C” value was determined as 100 fold and the Ki stood at 36 ± 9 nM. Besides, in the assay with polymodal nociceptors [3], the “RPP (Relative Pain-Producing Potency)” value turned out to be 1 and the “less potent than RTX for RTX-characteristic biological responses” value is given as “at least 1000 fold”. Also, the inhibition at 0.3 mg/kg in the assay with polymodal nociceptors [4] (setting [14]) is 0%. For the same compound, the “Neurogenic inflammation, Evan's blue” value with polymodal nociceptors [5] turned out to be 0.

`COc1cc(CC(=O)OCC2=C[C@H]3[C@@H]4C(C)(C)[C@]4(OC(=O)Cc4ccccc4)C[C@@H](C)[C@]3(O)[C@@H]3C=C(C)C(=O)[C@@]3(O)C2)ccc1O` [dPP-HV, 20-Homovanillic-12-deoxyphorbol 13-phenylacetate]: in [1], the “less potent than RTX in the other RTX responses / in vivo assays” value is given as 2-4 orders of magnitude; the “RTX-like effects” value is “more active than capsaicin and less active than RTX”. In assay [13], the “induction of hypothermia” value was “totally inactive” and the “less potent than RTX for induction of hypothermia” value is on record as “at least 4 orders of magnitude”. For the same compound, the inhibition at 0.3 mg/kg in the assay on polymodal nociceptors [8] (setting [15]) is 19%. Moreover, in the assay with polymodal nociceptors [8] (rat, in vivo), the “desensitization to chemically-induced pain and to neurogenic inflammation” value is “able to desensitize”; the “relative potency for systemic desensitization to chemically induced pain, less than RTX” value was “approximately 3000 fold”. Besides, in the assay on protein kinase C [2], the “Relative Affinity” value came out at 130, the “reduction” value came to 130 fold and the Ki turned out to be 82 ± 13 nM. Also, in the assay on polymodal nociceptors [3], the “RPP (Relative Pain-Producing Potency)” value came out at 1000, the “activity in eye-wiping assay / pain induction” value is “comparable to RTX; also recorded: comparable activity” and the “delay of eye-wiping movements after instillation” value was in the range of 20 to 30 s. Moreover, in the assay on polymodal nociceptors [4] (setting [14]), the inhibition at 0.3 mg/kg stood at 26% and the inhibition at 1 mg/kg came out at 62%. In addition, in the assay on polymodal nociceptors [4] (rat, in vivo), the “relative potency for inhibiting xylene-induced Evan's blue extravasation, less than RTX” value amounted to 300 fold. Further, in the assay on polymodal nociceptors [11], the “Local desensitization against neurogenic pain, inhibition” value is 78% and the “potency relative to RTX for desensitization of pain upon local administration” value is reported as not above 10 fold. In addition, in the assay on polymodal nociceptors [5], the “Neurogenic inflammation, Evan's blue” value is given as 0; the “Evan's blue extravasation” value is “No extravasation”; the “less potent than RTX for induction of Evan's blue extravasation” value was “at least 30 fold”.
